Laboratory results reported in ChEMBL document CHEMBL1201862, “PubChem BioAssay data set” (2004).
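Cells were grown in 96-well plates and exposed to each compound for 48 hours at five concentrations; endpoints were interpolated linearly between bracketing concentrations, or set to the highest concentration if not reached. GI50: concentration for 50% inhibition of growth.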 Active and inactive are the calls of the source. No stated cut-off is given here; in the data, active = GI50 up to about 1.1 µM and inactive = higher.

Columns and labels:
Experiment in all cases: DTP human tumour cell line panel, 48 h
Malme-3M = system: Malme-3M
MOLT-4 = system: MOLT-4
NCI-H522 = system: NCI-H522
SF-295 = system: SF-295
RXF 393 = system: RXF 393
HOP-62 = system: HOP-62
HCT-116 = system: HCT-116
MCF7 = system: MCF7
SK-MEL-2 = system: SK-MEL-2
U-251 = system: U-251
SNB-75 = system: SNB-75
UACC-62 = system: UACC-62
A549 = system: A549
CCRF-CEM = system: CCRF-CEM
A498 = system: A498
HCT-15 = system: HCT-15
TK-10 = system: TK-10
SR = system: SR
PC-3 = system: PC-3

Row | Compound | GI50 (Malme-3M) | GI50 (MOLT-4) | GI50 (NCI-H522) | GI50 (SF-295) | GI50 (RXF 393) | GI50 (HOP-62) | GI50 (HCT-116) | GI50 (MCF7) | GI50 (SK-MEL-2) | GI50 (U-251) | GI50 (SNB-75) | GI50 (UACC-62) | GI50 (A549) | GI50 (CCRF-CEM) | GI50 (A498) | GI50 (HCT-15) [µM] | GI50 (TK-10) | GI50 (SR) | GI50 (PC-3)
1 | COC(=O)c1nc(-c2ccc3c(n2)C(=O)C(=N)C(OC)=C3O)c(N)c(-c2ccc(OC)c(OC)c2O)c1C | 0.524 µM (active) | 2.04 µM (inactive) | 1.06 µM (active) | 0.449 µM (active) | 1.58 µM (inactive) | 0.194 µM (active) | 0.738 µM (active) | 0.153 µM (active) | 1.47 µM (inactive) | 0.377 µM (active) | 0.984 µM (active) | 0.29 µM (active) | 0.189 µM (active) | 2.56 µM (inactive) | 1.61 µM (inactive) | 1.13 | – | – | –
2 | CCC1=C(C(C)=O)[C@@H]2CCCCC[C@@H](C(=O)OC)C2C1=O (stereo not given in full) | > 100 µM (inactive) | > 100 µM (inactive) | > 100 µM (inactive) | > 100 µM (inactive) | > 100 µM (inactive) | > 100 µM (inactive) | > 100 µM (inactive) | – | > 100 µM (inactive) | > 100 µM (inactive) | > 100 µM (inactive) | > 100 µM (inactive) | > 100 µM (inactive) | > 100 µM (inactive) | > 100 µM (inactive) | > 100 | > 100 µM (inactive) | > 100 µM (inactive) | –
3 | CC(C)c1cccc2sc(NC(=O)C(=O)C(C#N)c3cccc4ccccc34)nc12 (stereo not given) | 73.3 µM (inactive) | 23.1 µM (inactive) | 54.1 µM (inactive) | 69.7 µM (inactive) | 25.2 µM (inactive) | 99.8 µM (inactive) | 76.9 µM (inactive) | – | 45.2 µM (inactive) | 57.5 µM (inactive) | 23.4 µM (inactive) | 57.4 µM (inactive) | 80.7 µM (inactive) | 41.8 µM (inactive) | 73.3 µM (inactive) | 75.5 | > 100 µM (inactive) | 32.4 µM (inactive) | –
4 | ClC1CCC2OOC1O2 (stereo not given) | > 100 µM (inactive) | > 100 µM (inactive) | > 100 µM (inactive) | > 100 µM (inactive) | > 100 µM (inactive) | > 100 µM (inactive) | 61.1 µM (inactive) | – | > 100 µM (inactive) | > 100 µM (inactive) | 82.2 µM (inactive) | 89.1 µM (inactive) | > 100 µM (inactive) | 54 µM (inactive) | > 100 µM (inactive) | 87.3 | > 100 µM (inactive) | > 100 µM (inactive) | –
5 | Cc1ccc(/C=C2\Cc3cccc(C)c3C2=O)c(C(=O)O)c1 | > 100 µM (inactive) | 48.2 µM (inactive) | 22.3 µM (inactive) | > 100 µM (inactive) | 29.3 µM (inactive) | > 100 µM (inactive) | 72.9 µM (inactive) | > 10 µM (inactive) | – | 57.9 µM (inactive) | > 100 µM (inactive) | – | 74.3 µM (inactive) | 36.9 µM (inactive) | > 100 µM (inactive) | 39.2 | > 100 µM (inactive) | 90.4 µM (inactive) | 99.5 µM (inactive)
6 | Cc1ccc(N2C(=O)C(=CN)C(=O)N(c3ccc(C)cc3)C2=O)cc1 | 47.6 µM (inactive) | > 100 µM (inactive) | > 100 µM (inactive) | > 100 µM (inactive) | 91.6 µM (inactive) | 44.2 µM (inactive) | > 100 µM (inactive) | – | 66.8 µM (inactive) | 10 µM (inactive) | 13.3 µM (inactive) | 68.9 µM (inactive) | > 100 µM (inactive) | 89.9 µM (inactive) | 84.9 µM (inactive) | 62.1 | 48.4 µM (inactive) | > 100 µM (inactive) | –
7 | N#CC1(C#N)C(C#N)(C#N)C12CCCCCC2 | 16.4 µM (inactive) | 5.45 µM (inactive) | 2.77 µM (inactive) | > 39.7 µM (inactive) | 10.4 µM (inactive) | > 52.8 µM (inactive) | 5.01 µM (inactive) | – | 13.2 µM (inactive) | 14.1 µM (inactive) | 22.9 µM (inactive) | 12.9 µM (inactive) | 14.7 µM (inactive) | 1.85 µM (inactive) | 18.5 µM (inactive) | 8.41 | 16.8 µM (inactive) | 22.1 µM (inactive) | –
8 | CC1=CCC2(C#N)CCC1C2O (stereo not given) | > 100 µM (inactive) | > 100 µM (inactive) | > 100 µM (inactive) | > 100 µM (inactive) | > 100 µM (inactive) | > 100 µM (inactive) | > 100 µM (inactive) | – | > 100 µM (inactive) | > 100 µM (inactive) | > 100 µM (inactive) | > 100 µM (inactive) | > 100 µM (inactive) | > 100 µM (inactive) | > 100 µM (inactive) | > 100 | > 100 µM (inactive) | > 100 µM (inactive) | –
